# In ChEMBL document CHEMBL5357030, “Caged Xanthones and Biphenyls Isolated from the Tropical Plant Garcinia lateriflora” (J Nat Prod, 2024):
# Legend:
# Assay type in all cases: functional, cell-based
# A549 = assay: Antiproliferative activity against human A549 cells assessed as inhibition of cell growth incubated for 72 hrs by SRB assay; settings: A549, 72 h
# KB = assay: Antiproliferative activity against human KB cells assessed as inhibition of cell growth incubated for 72 hrs by SRB assay
# MCF7 = assay: Antiproliferative activity against HER2-negative human MCF7 cells assessed as inhibition of cell growth incubated for 72 hrs by SRB assay; settings: MCF7, 72 h
# [1] = Antiproliferative activity against human KB-VIN cells overexpressing p-gp assessed as inhibition of cell growth incubated for 72 hrs by SRB assay; settings: KBVIN
# MDA-MB-231 = assay: Antiproliferative activity against triple negative human MDA-MB-231 cells assessed as inhibition of cell growth incubated for 72 hrs by SRB assay; settings: MDA-MB-231, 72 h
Compound,IC50 (A549),IC50 (KB),IC50 (MCF7),IC50 (MDA-MB-231),IC50 [1]
COc1cc(-c2ccc(O)c(C/C=C(/C)CO)c2)cc(O)c1O,> 10 µM,> 10 µM,> 10 µM,> 10 µM,> 10 µM
COc1cc(-c2ccc(O)c(CCC(C)CO)c2)cc(O)c1O (stereo not drawn),> 10 µM,> 10 µM,> 10 µM,> 10 µM,> 10 µM
COc1c(O)c(O)cc(-c2ccccc2)c1CC=C(C)C,> 10 µM,> 10 µM,> 10 µM,> 10 µM,> 10 µM
COc1cc(-c2ccc3c(c2)C=CC(C)(C)O3)cc(O)c1O,> 10 µM,> 10 µM,> 10 µM,> 10 µM,> 10 µM
CC(=O)O[C@H]1C(=O)[C@@]2(C)[C@H]([C@H](OC(=O)c3ccccc3)[C@]3(O)C[C@H](OC(=O)[C@H](O)[C@@H](NC(=O)c4ccccc4)c4ccccc4)C(C)=C1C3(C)C)[C@]1(OC(C)=O)CO[C@@H]1C[C@@H]2O [PACLITAXEL],,< 0.0001 µM,,0.0009 µM,2.2 µM

# Second part, led by results:
IC50 (A549),IC50 (KB),IC50 (MCF7),IC50 (MDA-MB-231),Compound,IC50 [1]
> 10 µM,6.1 µM,10.4 µM,> 10 µM,C=CC(C)(C)c1c2c(c(O)c3c1O[C@]14[C@H](C3=O)[C@@H](OC)[C@H]3C[C@H]1C(C)(C)O[C@@]4(C/C=C(\C)C(=O)O)C3=O)C=CC(C)(C)O2,> 10 µM
0.8 µM,0.6 µM,1.3 µM,0.5 µM,C=CC(C)(C)c1c2c(c(O)c3c1O[C@]14C(=C[C@@H]5C[C@H]1C(C)(C)O[C@@]4(C/C=C(\C)C(=O)O)C5=O)C3=O)C=CC(C)(C)O2,0.6 µM
2.9 µM,1.2 µM,5.6 µM,4.6 µM,C=CC(C)(C)c1c2c(c(O)c3c1OC(C)(C)[C@H]1CCC(C)=C[C@@H]31)C(=O)C1=C[C@@H]3C[C@H]4C(C)(C)O[C@@](C/C=C(\C)C(=O)O)(C3=O)[C@@]14O2,5.2 µM
5.6 µM,5.2 µM,6.4 µM,5.7 µM,C=CC(C)(C)c1c2c(c(O)c3c1OC(C)(C)[C@H]1CCC(C)=C[C@@H]31)C(=O)[C@@H]1[C@@H](OC)[C@@H]3C[C@H]4C(C)(C)O[C@@](C/C=C(\C)C(=O)O)(C3=O)[C@@]14O2,5.2 µM
6.1 µM,5.3 µM,6.7 µM,6.4 µM,C=CC(C)(C)c1c2c(c(O)c3c1OC(C)(C)[C@H]1CCC(C)=C[C@@H]31)C(=O)[C@@H]1[C@@H](O)[C@@H]3C[C@H]4C(C)(C)O[C@@](C/C=C(\C)C(=O)O)(C3=O)[C@@]14O2,5.7 µM
3 µM,1.8 µM,3.2 µM,2.9 µM,C=CC(C)(C)c1c2c(c(O)c3c1OC(C)(C)[C@H]1CCC(C)=C[C@@H]31)C(=O)C1=C[C@@H]3C[C@H]4C(C)(C)O[C@@](C/C=C(/C)C(=O)O)(C3=O)[C@@]14O2,4 µM
